Measurements reported in the kinase profiling compilation of Christmann-Franck et al. (2016).

Experiments:
Experiment in all cases: radiometric filter-binding kinase assay, Kinase HotSpot
Conditions in all cases: compound 0.5 µM; ATP 10 µM
ROCK1 (human) = ROCK1 (human) (UniProt Q13464)
EPHB3 (human) = EPHB3 (human) (UniProt P54753)
CDK4 CCND3 (human) = CDK4 CCND3 (human) (UniProt P30281+P11802)
JAK3 JH1 JH2 (human) = JAK3 JH1 JH2 (human) (UniProt P52333)
NEK2 (human) = NEK2 (human) (UniProt P51955)
CLK3 (human) = CLK3 (human) (UniProt P49761)
MST1R (human) = MST1R (human) (UniProt Q04912)
CDK6 CCND1 (human) = CDK6 CCND1 (human) (UniProt Q00534+P24385)
Sequence of CDK6 CCND1 (human) (P24385 whole entry, looked up): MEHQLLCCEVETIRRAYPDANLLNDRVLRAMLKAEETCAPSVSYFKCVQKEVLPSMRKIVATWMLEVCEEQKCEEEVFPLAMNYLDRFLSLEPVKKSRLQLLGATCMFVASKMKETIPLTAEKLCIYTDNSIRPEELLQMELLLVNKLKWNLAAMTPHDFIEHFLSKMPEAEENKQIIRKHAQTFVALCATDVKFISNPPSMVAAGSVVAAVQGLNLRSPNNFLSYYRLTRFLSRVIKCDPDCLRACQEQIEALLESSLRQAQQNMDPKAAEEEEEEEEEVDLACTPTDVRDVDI
Sequence of CDK6 CCND1 (human) (Q00534 whole entry, looked up): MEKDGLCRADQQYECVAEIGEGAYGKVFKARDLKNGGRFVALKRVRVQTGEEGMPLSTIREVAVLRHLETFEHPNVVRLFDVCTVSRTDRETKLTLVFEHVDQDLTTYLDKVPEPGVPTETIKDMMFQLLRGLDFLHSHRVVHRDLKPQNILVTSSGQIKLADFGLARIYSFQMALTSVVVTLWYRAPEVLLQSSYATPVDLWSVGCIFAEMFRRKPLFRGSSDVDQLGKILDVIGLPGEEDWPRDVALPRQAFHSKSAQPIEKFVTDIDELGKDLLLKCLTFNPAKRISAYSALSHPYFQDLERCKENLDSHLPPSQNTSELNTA

PLK1 (human) = PLK1 (human) (UniProt P53350)
CSNK1D (human) = CSNK1D (human) (UniProt P48730)
AURKB (human) = AURKB (human) (UniProt Q96GD4)
KDR (human) = KDR (human) (UniProt P35968)
MERTK (human) = MERTK (human) (UniProt Q12866)
MAP3K5 (human) = MAP3K5 (human) (UniProt Q99683)
TEC (human) = TEC (human) (UniProt P42680)
PRKCB1 (human) = PRKCB1 (human) (UniProt P05771)
DCLK2 (human) = DCLK2 (human) (UniProt Q8N568)
TXK (human) = TXK (human) (UniProt P42681)
Sequence of TXK (human) (P42681 whole entry, looked up): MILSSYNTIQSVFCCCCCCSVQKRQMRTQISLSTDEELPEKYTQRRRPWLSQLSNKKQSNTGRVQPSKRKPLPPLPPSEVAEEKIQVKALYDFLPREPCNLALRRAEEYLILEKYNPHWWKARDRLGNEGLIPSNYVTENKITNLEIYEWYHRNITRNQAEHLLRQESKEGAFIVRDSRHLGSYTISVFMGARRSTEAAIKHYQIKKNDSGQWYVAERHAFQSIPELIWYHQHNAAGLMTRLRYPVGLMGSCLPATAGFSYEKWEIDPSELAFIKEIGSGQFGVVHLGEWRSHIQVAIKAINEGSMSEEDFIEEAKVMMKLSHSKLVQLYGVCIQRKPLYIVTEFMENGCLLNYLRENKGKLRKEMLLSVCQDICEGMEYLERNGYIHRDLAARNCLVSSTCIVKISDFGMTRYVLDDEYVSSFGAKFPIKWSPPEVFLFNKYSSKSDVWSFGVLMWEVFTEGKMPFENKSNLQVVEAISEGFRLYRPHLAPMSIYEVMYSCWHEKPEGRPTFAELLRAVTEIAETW

ACVR1 (human) = ACVR1 (human) (UniProt Q04771)
DAPK1 (human) = DAPK1 (human) (UniProt P53355)
PAK4 (human) = PAK4 (human) (UniProt O96013)
Sequence of PAK4 (human) (O96013 whole entry, looked up): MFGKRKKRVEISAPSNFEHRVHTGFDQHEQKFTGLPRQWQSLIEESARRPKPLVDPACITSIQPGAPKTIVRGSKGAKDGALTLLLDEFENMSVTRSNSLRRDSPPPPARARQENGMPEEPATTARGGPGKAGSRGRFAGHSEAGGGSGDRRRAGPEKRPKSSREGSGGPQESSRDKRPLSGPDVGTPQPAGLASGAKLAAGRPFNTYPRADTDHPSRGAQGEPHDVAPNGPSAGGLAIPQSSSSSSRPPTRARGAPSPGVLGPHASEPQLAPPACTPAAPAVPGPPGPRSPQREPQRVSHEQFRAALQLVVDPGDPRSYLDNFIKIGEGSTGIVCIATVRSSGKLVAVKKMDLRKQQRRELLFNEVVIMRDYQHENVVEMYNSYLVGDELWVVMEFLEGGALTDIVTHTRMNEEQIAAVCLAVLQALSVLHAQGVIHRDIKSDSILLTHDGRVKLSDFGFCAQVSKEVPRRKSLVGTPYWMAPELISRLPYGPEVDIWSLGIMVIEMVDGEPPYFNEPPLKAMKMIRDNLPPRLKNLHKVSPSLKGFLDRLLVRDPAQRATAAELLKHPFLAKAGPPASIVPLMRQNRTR

FER (human) = FER (human) (UniProt P16591)
PHKG1 (human) = PHKG1 (human) (UniProt Q16816)
TGFBR2 (human) = TGFBR2 (human) (UniProt P37173)
CDC42BPB (human) = CDC42BPB (human) (UniProt Q9Y5S2)
Sequence of CDC42BPB (human) (Q9Y5S2 whole entry, looked up): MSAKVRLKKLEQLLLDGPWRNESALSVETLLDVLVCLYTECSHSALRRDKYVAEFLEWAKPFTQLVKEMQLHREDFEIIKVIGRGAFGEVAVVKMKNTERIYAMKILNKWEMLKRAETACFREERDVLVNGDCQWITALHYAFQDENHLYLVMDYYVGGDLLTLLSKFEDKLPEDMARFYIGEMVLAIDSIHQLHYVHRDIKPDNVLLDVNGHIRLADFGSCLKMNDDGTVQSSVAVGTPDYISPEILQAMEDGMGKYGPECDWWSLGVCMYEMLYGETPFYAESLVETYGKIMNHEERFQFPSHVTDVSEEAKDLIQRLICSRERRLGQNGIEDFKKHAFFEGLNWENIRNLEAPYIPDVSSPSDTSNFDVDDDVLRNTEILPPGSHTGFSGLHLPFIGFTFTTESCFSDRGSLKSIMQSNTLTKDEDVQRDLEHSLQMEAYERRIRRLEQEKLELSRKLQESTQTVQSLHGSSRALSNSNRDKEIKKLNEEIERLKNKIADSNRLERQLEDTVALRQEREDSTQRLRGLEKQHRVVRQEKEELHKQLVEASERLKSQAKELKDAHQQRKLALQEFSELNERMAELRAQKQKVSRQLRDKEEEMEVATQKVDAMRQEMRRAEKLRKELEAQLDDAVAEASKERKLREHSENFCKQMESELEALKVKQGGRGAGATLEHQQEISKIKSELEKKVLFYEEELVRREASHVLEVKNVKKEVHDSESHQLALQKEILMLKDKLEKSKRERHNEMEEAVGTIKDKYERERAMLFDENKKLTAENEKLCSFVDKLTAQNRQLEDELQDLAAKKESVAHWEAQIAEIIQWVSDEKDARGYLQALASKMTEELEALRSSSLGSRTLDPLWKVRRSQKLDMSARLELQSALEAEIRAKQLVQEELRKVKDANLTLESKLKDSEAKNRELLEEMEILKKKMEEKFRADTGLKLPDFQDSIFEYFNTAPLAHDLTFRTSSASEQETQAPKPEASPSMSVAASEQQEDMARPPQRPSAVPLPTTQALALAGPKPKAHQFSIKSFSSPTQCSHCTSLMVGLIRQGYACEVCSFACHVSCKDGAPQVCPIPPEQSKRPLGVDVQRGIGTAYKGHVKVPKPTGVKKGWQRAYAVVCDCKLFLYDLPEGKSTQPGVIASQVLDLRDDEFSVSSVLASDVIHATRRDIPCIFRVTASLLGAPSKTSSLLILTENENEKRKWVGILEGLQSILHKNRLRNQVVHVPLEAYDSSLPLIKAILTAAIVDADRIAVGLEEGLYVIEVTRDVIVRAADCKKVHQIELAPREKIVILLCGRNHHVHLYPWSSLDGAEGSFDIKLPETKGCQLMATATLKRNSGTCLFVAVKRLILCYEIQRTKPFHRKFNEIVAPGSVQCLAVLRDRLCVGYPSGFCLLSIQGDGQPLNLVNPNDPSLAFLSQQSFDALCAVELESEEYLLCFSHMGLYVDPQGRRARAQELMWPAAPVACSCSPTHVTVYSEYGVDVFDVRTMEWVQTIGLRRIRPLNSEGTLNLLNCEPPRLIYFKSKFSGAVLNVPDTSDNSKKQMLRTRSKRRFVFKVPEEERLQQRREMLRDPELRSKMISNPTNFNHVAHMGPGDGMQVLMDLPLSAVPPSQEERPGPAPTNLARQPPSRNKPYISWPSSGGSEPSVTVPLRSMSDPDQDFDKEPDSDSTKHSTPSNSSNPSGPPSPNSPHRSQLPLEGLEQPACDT

RIPK2 (human) = RIPK2 (human) (UniProt O43353)
TBK1 (human) = TBK1 (human) (UniProt Q9UHD2)
PIM1 (human) = PIM1 (human) (UniProt P11309)
Sequence of PIM1 (human) (P11309 whole entry, looked up): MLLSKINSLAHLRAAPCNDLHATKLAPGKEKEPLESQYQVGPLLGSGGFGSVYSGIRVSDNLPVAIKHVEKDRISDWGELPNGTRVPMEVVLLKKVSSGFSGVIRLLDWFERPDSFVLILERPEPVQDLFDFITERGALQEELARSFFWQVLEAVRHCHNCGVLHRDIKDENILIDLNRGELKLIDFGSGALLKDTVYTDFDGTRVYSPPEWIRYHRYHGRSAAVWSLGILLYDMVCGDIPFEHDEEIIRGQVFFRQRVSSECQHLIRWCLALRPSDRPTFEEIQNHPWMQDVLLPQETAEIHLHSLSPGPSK

CDK4 CCND1 (human) = CDK4 CCND1 (human) (UniProt P24385+P11802)
AKT1 (human) = AKT1 (human) (UniProt P31749)
EPHA2 (human) = EPHA2 (human) (UniProt P29317)
PDGFRA (human) = PDGFRA (human) (UniProt P16234)
MAPK14 (human) = MAPK14 (human) (UniProt Q16539)
FYN (human) = FYN (human) (UniProt P06241)
CHEK2 (human) = CHEK2 (human) (UniProt O96017)
MAPK12 (human) = MAPK12 (human) (UniProt P53778)
EPHB4 (human) = EPHB4 (human) (UniProt P54760)
MAP3K14 (human) = MAP3K14 (human) (UniProt Q99558)
ERBB2 (human) = ERBB2 (human) (UniProt P04626)
MAPK11 (human) = MAPK11 (human) (UniProt Q15759)
[1] = biological target: TYK2 JH1 catalytic (human) (UniProt P29597)
Sequence of TYK2 JH1 catalytic (human) (P29597 whole entry, looked up): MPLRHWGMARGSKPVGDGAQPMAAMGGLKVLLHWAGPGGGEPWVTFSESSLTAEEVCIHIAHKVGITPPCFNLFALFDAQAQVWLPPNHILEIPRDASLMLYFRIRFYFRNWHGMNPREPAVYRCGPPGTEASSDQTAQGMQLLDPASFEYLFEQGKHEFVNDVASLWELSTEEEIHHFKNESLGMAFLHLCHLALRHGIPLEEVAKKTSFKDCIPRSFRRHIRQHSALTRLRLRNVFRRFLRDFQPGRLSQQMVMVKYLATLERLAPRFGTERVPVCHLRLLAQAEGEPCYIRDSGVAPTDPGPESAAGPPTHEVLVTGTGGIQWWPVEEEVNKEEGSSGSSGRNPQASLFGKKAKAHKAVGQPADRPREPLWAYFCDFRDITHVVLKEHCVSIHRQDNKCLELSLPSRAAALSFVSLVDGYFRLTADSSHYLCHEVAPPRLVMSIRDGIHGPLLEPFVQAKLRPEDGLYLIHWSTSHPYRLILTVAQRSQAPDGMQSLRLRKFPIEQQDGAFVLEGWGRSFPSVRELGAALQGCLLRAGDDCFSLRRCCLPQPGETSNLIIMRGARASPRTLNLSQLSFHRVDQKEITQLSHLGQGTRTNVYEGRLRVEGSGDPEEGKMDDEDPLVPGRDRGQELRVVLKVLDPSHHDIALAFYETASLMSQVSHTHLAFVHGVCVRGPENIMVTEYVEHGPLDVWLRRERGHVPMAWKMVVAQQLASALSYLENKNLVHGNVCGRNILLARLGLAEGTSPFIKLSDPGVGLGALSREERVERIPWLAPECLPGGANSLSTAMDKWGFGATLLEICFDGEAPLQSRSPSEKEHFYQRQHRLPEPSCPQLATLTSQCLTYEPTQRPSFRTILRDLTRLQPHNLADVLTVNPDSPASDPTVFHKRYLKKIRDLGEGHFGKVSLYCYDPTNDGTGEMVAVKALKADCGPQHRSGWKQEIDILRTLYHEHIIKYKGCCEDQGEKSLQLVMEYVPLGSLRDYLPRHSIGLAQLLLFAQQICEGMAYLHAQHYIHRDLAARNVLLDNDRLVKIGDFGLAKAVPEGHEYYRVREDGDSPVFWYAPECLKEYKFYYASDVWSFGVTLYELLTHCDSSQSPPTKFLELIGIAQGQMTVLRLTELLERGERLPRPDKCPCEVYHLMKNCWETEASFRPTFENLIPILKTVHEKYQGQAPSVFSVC

STK17A (human) = STK17A (human) (UniProt Q9UEE5)

## Nc1nc(Nc2ccc(S(N)(=O)=O)cc2)nn1C(=S)Nc1c(F)cccc1F
ROCK1 (human)
  residual activity: 0.17%
EPHB3 (human)
  residual activity: 90.4%
CDK4 CCND3 (human)
  residual activity: 3.67%
JAK3 JH1 JH2 (human)
  residual activity: 5.21%
NEK2 (human)
  residual activity: 98.3%
CLK3 (human)
  residual activity: 4.64%
MST1R (human)
  residual activity: 56%
CDK6 CCND1 (human)
  residual activity: 2.89%
PLK1 (human)
  residual activity: 92.1%
CSNK1D (human)
  residual activity: 83.7%
AURKB (human)
  residual activity: 12.9%
KDR (human)
  residual activity: 6.55%
MERTK (human)
  residual activity: 14.8%
MAP3K5 (human)
  residual activity: 1.12%
TEC (human)
  residual activity: 106%
PRKCB1 (human)
  residual activity: 75.2%
DCLK2 (human)
  residual activity: 40.4%
TXK (human)
  residual activity: 85.8%
ACVR1 (human)
  residual activity: 60.4%
DAPK1 (human)
  residual activity: 81.3%
PAK4 (human)
  residual activity: 47.6%
FER (human)
  residual activity: 21.7%
PHKG1 (human)
  residual activity: 26%
TGFBR2 (human)
  residual activity: 89.3%
CDC42BPB (human)
  residual activity: 48.1%
RIPK2 (human)
  residual activity: 19.7%
TBK1 (human)
  residual activity: 10.3%
PIM1 (human)
  residual activity: 90.7%
CDK4 CCND1 (human)
  residual activity: 87.7%
AKT1 (human)
  residual activity: 103%
EPHA2 (human)
  residual activity: 29.9%
PDGFRA (human)
  residual activity: 56.4%
MAPK14 (human)
  residual activity: 95.4%
FYN (human)
  residual activity: 24.8%
CHEK2 (human)
  residual activity: 1.96%
MAPK12 (human)
  residual activity: 95.2%
EPHB4 (human)
  residual activity: 51%
MAP3K14 (human)
  residual activity: 29.1%
ERBB2 (human)
  residual activity: 104%
MAPK11 (human)
  residual activity: 78.5%
[1]
  residual activity: 5.11%
STK17A (human)
  residual activity: 11.1%
